65 molecules from a melting point compilation (Tetko et al.; mined from patent text by program, amines drawn as free bases though some values may be those of a salt) can be followed below.

What is called melting point is the temperature of the solid-liquid transition. On to `Fc1ccc(N2CCN(Cc3ccc(CCl)cc3)CC2)cc1`, for which the melting point is 81 to 83 °C.

With `CC(C)(C)C(O)(Cn1cncn1)C(Br)=C(Cl)Br` (stereo not given), the melting point lay within 78 to 81 °C.

`O=C(O)CCC(=O)c1cccc([N+](=O)[O-])c1` gave a melting point of 162 to 164 °C.

`CC(C)(C)OC(=O)N[C@@H]1CCC[C@@H]1O` (relative stereo) returned a melting point of 64 to 65 °C.

In the case of `COCCCNS(=O)(=O)NC(=O)OCCCc1ccc(OCCOC)cc1Oc1ncc(Cl)cc1Cl`, the melting point lay within 87.9 to 89 °C.

Take `CCCCCCCCCCCC#Cc1ccccc1C=C(P(=O)(O)O)P(=O)(O)O`: the melting point was 141 to 142 °C.

As for `Cc1nc2ccc(N3CCN[C@H](C)C3)nn2c1-c1ccnc2[nH]ccc12`, the melting point is 202 to 204 °C.

`Cc1cc(=O)c(Oc2ccc(F)cc2C)c(-c2ccc(S(C)(=O)=O)cc2)o1`: the melting point was determined as 146 °C.

The molecule `CC(=O)N1C(=O)Cc2cc(F)c(N3C(=O)C4=C(CCCC4)C3=O)cc21` returned a melting point of 191 to 194 °C.

`CNC(=O)C(C)(C)CCCCC1(CCCCC(C)(C)C(=O)NC)SCCCS1` registered a melting point of 104 to 106 °C.

Take `O=[N+]([O-])N=C1NCCN1Cc1ccc(OCC(F)(F)F)nc1`: the melting point was 109 to 112 °C.

In the case of `O=C(c1ccccc1)C(O)c1ccc(F)cc1` (stereo not given), the melting point fell in the range of 108 to 109 °C.

For the molecule `Cc1nnc2n1-c1ccc(C#CCN3C(=O)C(=O)c4ccccc43)cc1C(c1ccccc1Cl)=NC2`, the melting point lay in the range of 210 to 212 °C.

The molecule `COc1ccc(C(NCCc2ccccc2)c2cccc(Nc3c(N)c(=O)c3=O)c2)cc1` (stereo not given) registered a melting point of 174 to 176 °C.

The molecule `COc1ccc(-c2cn3ccccc3n2)cc1OC` showed a melting point of 96 °C.

The molecule `O=C1c2ccccc2C(=O)c2sc(-c3ccc(Cl)o3)nc21` displayed a melting point of 258 °C.

In turn, `CCn1c(-c2ccc(OC)c(OC)c2)cc(=O)n(C)c1=O` showed a melting point of 110 to 120 °C.

The molecule `C=CCn1c(=O)c2cnc(Nc3ccc(N4CCN(C)CC4)cc3)nc2n(C(C)C)c1=O` registered a melting point of 176 to 177 °C.

Molecule `COc1cc(NC(=S)C2(C)CCc3c(C)c(O)c(C)c(C)c3O2)cc(OC)c1OC` (stereo not given) had a melting point of 147 to 148 °C.

`O=C1C(=O)N2CCCc3cc(Cl)cc1c32` displayed a melting point of 188 to 189 °C.

`COc1ccc(C2CCN(c3c(C)c(C)c4c(c3C)[C@@H](c3ccc(C)cc3)C(C)(C)O4)CC2)cc1` displayed a melting point of 183 to 185 °C.

As for `Cc1cc(C)c2c(c1)OC(=O)C2c1ccc(C(C)C)cc1` (stereo not given), the melting point lay in the range of 76 to 77 °C.

Turning to `Cc1ncn(Nc2ccccc2)c1C`, the melting point is 178 °C.

In the case of `CCCC1N=Cc2cc(Cl)nc(=O)n21` (stereo not given), the melting point is 194 to 196 °C.

Consider `CCC1CCc2c(sc3cc(OCc4ccccc4)ccc3c2=O)C1` (stereo not given), for which the melting point was 94 °C.

`C[C@@H](NC(=O)OC(C)(C)C)c1nc2c(Cl)cccc2s1` returned a melting point of 95 to 96 °C.

For `O=C1c2ccccc2C(=O)N1CC(=O)N1c2ccccc2N(Cc2cccc3ccccc23)C(=O)[C@H]2CCC[C@H]21` (relative stereo), the melting point was in the range of 266 to 270 °C.

For the molecule `CS(=O)(=O)N[C@@H]1CCCC[C@H]1Nc1nc(Nc2ccc3c(c2)CNCCS3)ncc1Cl`, the melting point lay in the range of 141 to 143 °C.

`CCc1cn(C2CC(F)C(CO)O2)c(=O)[nH]c1=S` (stereo not given) returned a melting point of 139 to 140 °C.

In turn, `COc1ccc2c(cc(CCC(=O)O)n2S(=O)(=O)c2ccccc2)n1` displayed a melting point of 136 to 139 °C.

In turn, `O=C(C[N+](=O)[O-])OCCSc1ccccc1` displayed a melting point of 22 to 24 °C.

As for `CCn1c(=O)c2[nH]c(/C=C/c3ccc(F)c(F)c3)nc2n(CC)c1=O`, the melting point was above 300 °C.

For `CC(=O)N1C[C@H]2CCC[C@H]2OC1=O` (relative stereo), the melting point fell in the range of 80 to 83 °C.

The molecule `CCOC(=O)c1nc(C)n2c1CN=C(c1ccccn1)c1cc(Br)ccc1-2` displayed a melting point of 240 to 243 °C.

`CSc1cccc(-c2nc(=O)c3ccccc3s2)n1` displayed a melting point of 207 to 208 °C.

On to `NC(=O)C1c2ccccc2-c2ccccc21`, for which the melting point amounted to 250 °C.

`COc1ccc2c(-c3ccccc3F)noc2c1` came in with a melting point of 101 to 103 °C.

The molecule `C#Cc1cnc(OCCC)c(-c2nc3c(CC)n(C4CCN(C(=O)OC(C)(C)C)CC4)nc3c(=O)[nH]2)c1` returned a melting point of 221 °C.

Molecule `COc1cccc2c1CCC(COC(=O)N(c1ccccc1)c1ccccc1)C2` (stereo not given) registered a melting point of 144 to 146 °C.

In the case of `CCCCCCCCCCCCCCCCCCN(C)C(=O)c1ccc(Cl)c([N+](=O)[O-])c1`, the melting point was in the range of 55 to 56 °C.

As for `CC(=O)Nc1ccc(C=O)c(C)c1C#N`, the melting point was 170 to 173 °C.

As for `Cn1c(-c2ccccc2)c(C=O)c2ccc(Cl)cc2c1=O`, the melting point fell in the range of 172 to 173 °C.

As to `Cc1nnc(-c2cc3cccc(NS(=O)(=O)c4cccs4)c3[nH]2)s1`, the melting point is 308 to 309 °C.

In turn, `CCOc1cc2c(cc1OCC)C(C(S)(C#N)c1ccccc1)=NCC2` (stereo not given) returned a melting point of 118 to 119 °C.

Molecule `O=C(NN=Cc1c(O)cccc1Cl)c1ccc(Cl)cc1` showed a melting point of 273 to 277 °C.

Take `CC(C)Cn1c(=O)n(C)c(=O)c2c1ncn2CCCO`: the melting point fell in the range of 135 to 137 °C.

For the molecule `COc1ccc2ccc(OS(=O)(=O)C(F)(F)F)c(-c3nnc(Cl)c4ccccc34)c2c1`, the melting point is 140 °C.

Regarding `C[C@@H](C(=O)O)N(C)C(=O)CCSSc1ccc([N+](=O)[O-])cc1`, the melting point is 74 to 77 °C.

In the case of `COc1cccc2c1C(C)C(=O)N2` (stereo not given), the melting point was 128 to 130 °C.

Turning to `CC(OC(=O)N(C(C)C)C(C)C)c1ccccc1[N+](=O)[O-]` (stereo not given), the melting point is 40 to 41 °C.

Molecule `CC(C)N1NC(c2ccc(F)cc2)=c2cc(Cl)ccc2=CS1(=O)=O` displayed a melting point of 147 to 151 °C.

With `Cn1nc(C(F)F)cc1O`, the melting point was found to be 133 °C.

The molecule `COc1c(C)cnc(Cn2cc(C#CCC(C)(C)O)c3c(Cl)nc(N)nc32)c1C` registered a melting point of 163 to 165 °C.

The molecule `Cc1nn(C(N)=O)c2c1C(=O)CC(C)(C)C2` returned a melting point of 173 to 175 °C.

Consider `CC(C)(CO)CCS(N)(=O)=O`, for which the melting point was 75 to 76 °C.

In turn, `CCN1N=C(c2ccc([N+](=O)[O-])cc2)C(C)(C)C1=O` yielded a melting point of 118 to 120 °C.

On to `O=C1NCCSc2sccc21`, for which the melting point fell in the range of 157 to 158 °C.

In turn, `COC(=O)c1ccccc1SC1=C(O)CC(CCC(C)C)(c2ccccc2)OC1=O` (stereo not given) had a melting point of 115 to 116 °C.

`CN1Cc2c(n(-c3ccc(F)cc3)c3ccc(F)cc23)C1`: the melting point was in the range of 160 to 165 °C.

Regarding `COc1ccc(Nc2ccn(Cc3ccccc3)n2)cc1`, the melting point lay in the range of 68 to 71 °C.

The molecule `CCc1ccc(Nc2c(-c3nnc(CC)o3)ccc(F)c2F)c(F)c1` showed a melting point of 82 to 83 °C.

`C=CC(=O)N1CC[C@H]2[C@H]1[C@@H](CCC)C(=O)N2S(C)(=O)=O` (relative stereo): the melting point was 177 to 181 °C.

Take `CCc1cc(OCc2ccc(-c3ccccc3-c3nnnn3-c3ccncc3)cc2)c2ccccc2n1`: the melting point was in the range of 155 to 170 °C.

`NC(=O)Nc1ccc2c(c1)N1CCN=C1S2` had a melting point of 300 °C.

The molecule `Oc1cnccc1CCCOc1cccnc1Oc1ccccc1` yielded a melting point of 163 to 165 °C.
